Source: patent US20260193268A1, “TRICYCLIC PI3Ka INHIBITOR, PREPARATION METHOD THEREFOR, AND PHARMACEUTICAL USE THEREOF” (WIGEN BIOMEDICINE TECHNOLOGY (SHANGHAI) CO., LTD., priority 2022, published 2026)
pIC50: −log10 of the molar value. Where two headings read alike, the source gives them in different places.

Experiments:
PI3Kβ = PI3Kβ (Homo sapiens, UniProt P42338); assay: ADP-Glo kinase assay, in vitro inhibition of PI3Kβ kinase activity; assay type: biochemical; settings: 25 μM ATP, PIP2 50 μg/mL, room temperature 1 h, read-out: Inhibitory activity against PI3K kinases, PI3Kβ (IC50)
Method: (§1) Biological Example 1. Assay for In Vitro Inhibition of PI3Kα, PI3Kβ, PI3Kγ, and PI3Kδ Kinase Activity by Compounds of the Present Disclosure
(§2) The experiment was performed using the ADP-Glo Kinase Assay kit according to the instructions. The following buffer solution was prepared: 50 mM HEPES, pH 7.5, 3 mM MgCl2, 1 mM EGTA, 100 mM NaCl, 0.03% CHAPS, 2 mM DTT. Test compound samples were dissolved in DMSO, diluted 3-fold at a starting concentration, e.g., 10 μM, and added to the screening system. A DMSO control and a kinase-free control were set simultaneously. The optimal concentrations of PI3Kα, PI3Kδ, PI3Kβ, and PI3Kγ enzymes, substrate (PIP2), and ATP were prepared with buffer. The enzyme reaction system contained: buffer, 25 μM ATP, kinase substrate (PIP2, 50 μg/mL), and kinases PI3Kα (0.15 μg/mL), PI3Kδ (1.2 μg/mL), PI3Kβ (0.3 μg/mL), PI3Kγ (2.5 μg/mL), and the like. The reaction system was reacted at room temperature for 1 h. The reaction was terminated by adding a termination reagent (ADP-Glo reagent, 5 μL), and the ADP content in the system was detected using a detection reagent (Kinase Detection Reagent, 10 μL). Signal data were collected using an Envision instrument. The inhibition rate was calculated according to the following equation: % inhibition=(DMSO control signal value−sample signal value)/(DMSO control signal value−kinase-free control signal value). The IC50 values were obtained by fitting a curve using the equation: Y=Bottom+(Top−Bottom)/(1+(IC50/X)^HillSlope).

PI3Kδ = PI3Kδ (Homo sapiens, UniProt O00329); assay: ADP-Glo kinase assay, in vitro inhibition of PI3Kδ kinase activity; assay type: biochemical; settings: 25 μM ATP, PIP2 50 μg/mL, room temperature 1 h, read-out: Inhibitory activity against PI3K kinases, PI3Kδ (IC50)
Method: as §1, §2

PI3Kγ = PI3Kγ (Homo sapiens, UniProt P48736); assay: ADP-Glo kinase assay, in vitro inhibition of PI3Kγ kinase activity; assay type: biochemical; settings: 25 μM ATP, PIP2 50 μg/mL, room temperature 1 h, read-out: Inhibitory activity against PI3K kinases, PI3Kγ (IC50)
Method: as §1, §2

[1] = test system: MCF-7 cells (with PI3Kα E545K mutation); assay: In vitro inhibition of MCF-7 cell proliferation (CellTiter-Lumi); assay type: cell-based; settings: Homo sapiens, MCF7, 144 h
How it was run: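 MCF-7 (PI3Kα E545K) seeded at 2000 cells/well; serially diluted compounds added next day and exposed for 144 h. Cellular ATP read by CellTiter-Lumi luminescence; IC50 for growth inhibition calculated.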

[2] = test system: HCC1954 cells (with PI3Kα H1047R mutation); assay: In vitro inhibition of HCC1954 cell proliferation (CellTiter-Lumi); assay type: cell-based; settings: Homo sapiens, HCC1954, 144 h, HCC1954 cells, 144 h, CellTiter-Lumi
Method: Assay for In Vitro Inhibition of HCC1954 Cell Proliferation by Compounds of the Present Disclosure
The growth of the cells was evaluated, and the IC50 for the inhibition of cell growth by the compounds was calculated.

PI3Kα = PI3Kα (Homo sapiens, UniProt P42336); assay: ADP-Glo kinase assay, in vitro inhibition of PI3Kα kinase activity; assay type: biochemical; settings: 25 μM ATP, PIP2 50 μg/mL, room temperature 1 h, read-out: Inhibitory activity against PI3K kinases, PI3Kα (IC50)
Method: as §1, §2

[3] = numeric values, read-out: Inhibitory activity against MCF-7 cells (IC50)
[4] = numeric values, read-out: Inhibitory activity against HCC1954 cells (IC50)
[5] = class symbols, read-out: Inhibitory activity against MCF-7 cells (IC50), class symbols
[6] = class symbols, read-out: Inhibitory activity against HCC1954 cells (IC50), class symbols

Sequence of PI3Kγ (P48736 whole entry, species assumed): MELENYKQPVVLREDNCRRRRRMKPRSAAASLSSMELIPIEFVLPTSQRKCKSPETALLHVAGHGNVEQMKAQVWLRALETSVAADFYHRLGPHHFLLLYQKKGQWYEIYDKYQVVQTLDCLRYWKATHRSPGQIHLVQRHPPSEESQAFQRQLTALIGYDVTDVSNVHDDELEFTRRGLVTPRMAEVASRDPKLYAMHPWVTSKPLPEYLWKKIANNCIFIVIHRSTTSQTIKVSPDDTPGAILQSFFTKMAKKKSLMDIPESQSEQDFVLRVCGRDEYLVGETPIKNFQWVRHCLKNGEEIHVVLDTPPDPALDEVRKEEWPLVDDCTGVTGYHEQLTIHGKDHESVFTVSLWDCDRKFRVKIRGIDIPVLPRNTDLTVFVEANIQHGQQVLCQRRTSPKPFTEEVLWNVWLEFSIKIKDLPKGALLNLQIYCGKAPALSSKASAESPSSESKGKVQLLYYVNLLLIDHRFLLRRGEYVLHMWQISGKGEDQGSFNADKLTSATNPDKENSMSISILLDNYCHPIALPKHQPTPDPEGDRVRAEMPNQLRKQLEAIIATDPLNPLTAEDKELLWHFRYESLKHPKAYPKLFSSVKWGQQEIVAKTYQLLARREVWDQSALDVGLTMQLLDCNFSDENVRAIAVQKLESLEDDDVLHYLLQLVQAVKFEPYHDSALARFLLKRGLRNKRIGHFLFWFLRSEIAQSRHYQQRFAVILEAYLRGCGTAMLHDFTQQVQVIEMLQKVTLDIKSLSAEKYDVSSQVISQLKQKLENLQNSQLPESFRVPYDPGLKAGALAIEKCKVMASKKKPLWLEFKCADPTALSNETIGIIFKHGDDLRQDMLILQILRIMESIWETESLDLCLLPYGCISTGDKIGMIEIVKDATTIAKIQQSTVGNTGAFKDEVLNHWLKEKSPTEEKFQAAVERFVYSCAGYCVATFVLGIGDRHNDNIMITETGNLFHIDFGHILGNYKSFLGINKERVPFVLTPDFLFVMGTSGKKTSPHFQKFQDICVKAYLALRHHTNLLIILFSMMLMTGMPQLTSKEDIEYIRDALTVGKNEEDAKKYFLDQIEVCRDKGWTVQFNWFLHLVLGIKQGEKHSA
Sequence of PI3Kα (P42336 whole entry): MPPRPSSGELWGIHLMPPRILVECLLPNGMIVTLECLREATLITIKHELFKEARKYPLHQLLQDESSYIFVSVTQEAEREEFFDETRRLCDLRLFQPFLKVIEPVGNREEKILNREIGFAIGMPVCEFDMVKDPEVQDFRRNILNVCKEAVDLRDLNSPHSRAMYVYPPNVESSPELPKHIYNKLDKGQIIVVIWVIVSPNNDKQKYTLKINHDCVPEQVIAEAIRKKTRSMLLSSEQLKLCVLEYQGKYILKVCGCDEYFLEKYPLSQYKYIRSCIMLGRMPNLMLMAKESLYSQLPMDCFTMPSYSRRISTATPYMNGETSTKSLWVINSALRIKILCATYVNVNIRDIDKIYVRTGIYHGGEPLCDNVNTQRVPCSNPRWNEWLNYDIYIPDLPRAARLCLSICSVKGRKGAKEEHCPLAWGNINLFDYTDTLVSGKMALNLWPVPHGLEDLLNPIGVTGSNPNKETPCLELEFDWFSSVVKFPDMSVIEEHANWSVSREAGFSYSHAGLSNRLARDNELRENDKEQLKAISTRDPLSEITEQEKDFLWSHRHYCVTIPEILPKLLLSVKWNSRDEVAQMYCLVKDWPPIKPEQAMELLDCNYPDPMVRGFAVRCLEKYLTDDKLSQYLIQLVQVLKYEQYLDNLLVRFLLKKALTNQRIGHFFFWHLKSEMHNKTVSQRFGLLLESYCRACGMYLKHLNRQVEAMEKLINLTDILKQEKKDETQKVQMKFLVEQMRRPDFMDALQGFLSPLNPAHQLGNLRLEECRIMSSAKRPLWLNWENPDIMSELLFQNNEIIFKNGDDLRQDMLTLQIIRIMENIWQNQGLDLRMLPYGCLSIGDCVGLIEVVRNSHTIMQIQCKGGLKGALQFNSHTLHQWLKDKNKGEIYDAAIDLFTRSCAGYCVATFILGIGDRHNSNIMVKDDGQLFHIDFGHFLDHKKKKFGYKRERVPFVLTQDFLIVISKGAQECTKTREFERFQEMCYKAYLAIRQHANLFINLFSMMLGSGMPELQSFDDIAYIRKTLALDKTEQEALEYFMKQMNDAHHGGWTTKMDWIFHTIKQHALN
Sequence of PI3Kα (P27986 whole entry partner): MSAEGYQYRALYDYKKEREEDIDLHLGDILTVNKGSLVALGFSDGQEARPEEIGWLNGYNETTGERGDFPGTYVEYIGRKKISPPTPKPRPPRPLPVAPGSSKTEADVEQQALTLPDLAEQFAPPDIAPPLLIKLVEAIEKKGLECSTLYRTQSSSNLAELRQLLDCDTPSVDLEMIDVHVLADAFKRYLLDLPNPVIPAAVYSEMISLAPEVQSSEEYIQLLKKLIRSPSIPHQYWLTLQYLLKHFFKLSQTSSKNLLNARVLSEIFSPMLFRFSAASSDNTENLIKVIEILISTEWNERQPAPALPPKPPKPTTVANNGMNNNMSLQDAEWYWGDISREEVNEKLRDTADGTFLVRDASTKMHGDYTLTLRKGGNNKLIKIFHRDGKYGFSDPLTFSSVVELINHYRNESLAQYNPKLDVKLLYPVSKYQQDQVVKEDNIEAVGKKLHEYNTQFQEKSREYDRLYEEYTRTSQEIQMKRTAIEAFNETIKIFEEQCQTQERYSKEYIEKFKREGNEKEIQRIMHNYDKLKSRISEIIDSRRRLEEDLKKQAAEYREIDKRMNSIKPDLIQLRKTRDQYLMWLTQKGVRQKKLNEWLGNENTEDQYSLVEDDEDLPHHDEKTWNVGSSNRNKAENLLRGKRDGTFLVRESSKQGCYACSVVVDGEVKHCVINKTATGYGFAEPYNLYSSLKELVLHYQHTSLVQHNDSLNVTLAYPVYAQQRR
Sequence of PI3Kβ (P42338 whole entry, species assumed): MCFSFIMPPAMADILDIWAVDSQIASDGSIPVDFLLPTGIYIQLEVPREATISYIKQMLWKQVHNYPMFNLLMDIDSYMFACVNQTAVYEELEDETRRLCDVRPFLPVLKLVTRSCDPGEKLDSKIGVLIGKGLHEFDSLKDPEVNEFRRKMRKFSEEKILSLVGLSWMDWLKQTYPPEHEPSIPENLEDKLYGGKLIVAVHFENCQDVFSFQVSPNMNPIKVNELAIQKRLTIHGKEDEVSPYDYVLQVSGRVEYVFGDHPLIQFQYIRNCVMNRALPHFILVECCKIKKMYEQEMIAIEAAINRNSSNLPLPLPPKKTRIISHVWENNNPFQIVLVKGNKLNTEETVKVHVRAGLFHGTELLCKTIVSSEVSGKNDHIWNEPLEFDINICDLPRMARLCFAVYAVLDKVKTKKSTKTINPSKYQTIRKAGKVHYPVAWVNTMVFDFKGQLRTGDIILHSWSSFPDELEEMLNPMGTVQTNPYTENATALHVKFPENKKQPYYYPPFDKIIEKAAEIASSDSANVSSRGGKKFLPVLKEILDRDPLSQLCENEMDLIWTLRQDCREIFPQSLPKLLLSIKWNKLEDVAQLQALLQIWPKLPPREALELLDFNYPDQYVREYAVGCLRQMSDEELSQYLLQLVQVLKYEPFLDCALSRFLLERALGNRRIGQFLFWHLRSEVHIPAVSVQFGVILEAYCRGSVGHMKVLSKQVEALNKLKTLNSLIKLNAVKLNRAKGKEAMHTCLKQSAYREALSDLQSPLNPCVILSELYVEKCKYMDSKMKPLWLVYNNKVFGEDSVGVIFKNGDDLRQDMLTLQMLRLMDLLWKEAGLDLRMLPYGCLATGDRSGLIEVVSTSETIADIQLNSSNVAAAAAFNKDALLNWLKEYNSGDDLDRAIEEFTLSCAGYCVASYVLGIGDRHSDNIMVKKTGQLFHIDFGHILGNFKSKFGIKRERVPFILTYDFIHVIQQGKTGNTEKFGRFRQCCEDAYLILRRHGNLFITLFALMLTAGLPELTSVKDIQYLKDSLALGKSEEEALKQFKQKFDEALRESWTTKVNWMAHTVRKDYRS
Sequence of PI3Kβ (P27986 whole entry partner, species assumed): as the sequence (P27986 whole entry partner) above
Sequence of PI3Kδ (O00329 whole entry, species assumed): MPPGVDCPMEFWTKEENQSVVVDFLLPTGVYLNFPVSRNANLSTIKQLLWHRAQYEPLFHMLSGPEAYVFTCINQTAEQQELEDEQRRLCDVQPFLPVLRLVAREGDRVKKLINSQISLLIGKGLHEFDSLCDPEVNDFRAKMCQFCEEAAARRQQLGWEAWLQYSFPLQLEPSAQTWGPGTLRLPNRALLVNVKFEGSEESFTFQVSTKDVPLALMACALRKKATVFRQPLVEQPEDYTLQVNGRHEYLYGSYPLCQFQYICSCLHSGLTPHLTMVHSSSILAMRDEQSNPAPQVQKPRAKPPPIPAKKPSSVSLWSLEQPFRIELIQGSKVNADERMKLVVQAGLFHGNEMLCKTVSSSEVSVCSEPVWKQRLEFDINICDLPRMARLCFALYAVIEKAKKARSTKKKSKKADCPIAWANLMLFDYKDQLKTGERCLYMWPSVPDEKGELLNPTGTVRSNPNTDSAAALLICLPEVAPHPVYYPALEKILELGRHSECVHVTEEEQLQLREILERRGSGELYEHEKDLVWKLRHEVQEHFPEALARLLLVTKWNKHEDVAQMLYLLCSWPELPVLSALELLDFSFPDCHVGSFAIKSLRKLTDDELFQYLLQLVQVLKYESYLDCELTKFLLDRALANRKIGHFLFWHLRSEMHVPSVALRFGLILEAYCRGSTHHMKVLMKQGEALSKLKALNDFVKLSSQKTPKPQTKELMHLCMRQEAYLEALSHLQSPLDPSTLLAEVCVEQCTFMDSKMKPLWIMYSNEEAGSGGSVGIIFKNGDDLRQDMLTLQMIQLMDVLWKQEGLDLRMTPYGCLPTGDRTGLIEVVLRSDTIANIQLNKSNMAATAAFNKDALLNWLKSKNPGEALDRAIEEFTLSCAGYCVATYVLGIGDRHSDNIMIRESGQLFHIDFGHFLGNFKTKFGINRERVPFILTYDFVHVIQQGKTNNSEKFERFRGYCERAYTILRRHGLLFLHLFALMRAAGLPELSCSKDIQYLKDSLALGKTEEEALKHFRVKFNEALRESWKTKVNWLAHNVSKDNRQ
Sequence of PI3Kδ (P27986 whole entry partner, species assumed): as the sequence (P27986 whole entry partner) above

Row | Compound | pIC50 (PI3Kβ) | pIC50 (PI3Kδ) | pIC50 (PI3Kγ) | pIC50 [1, 3] | pIC50 [2, 4] | pIC50 (PI3Kα) | pIC50 [1, 5] | pIC50 [2, 6]
1 | C=CC(=O)N1CC[C@@H](C(=O)NCC(=O)N2CCN(c3ccc4c(c3)-c3nc(N5C(=O)OC[C@H]5C(F)F)cn3CCO4)CC2)C1 [Compound 2] | 6.29 | 7.70 | 7.36 | 7.55 | 7.01 | 8.14 |  | 
2 | CN(C1COC1)C(C)(C)/C=C(\C#N)C(=O)Nc1ccc(N2CC(N3CCN(c4ccc5c(c4)-c4nc(N6C(=O)OC[C@H]6C(F)F)cn4CCO5)CC3)C2)cc1 [Compound 95] | 5.96 | 6.99 | 7.38 | 7.42 | 7.17 | 9.80 |  | 
3 | C=CC(=O)Nc1ccc(N2CC[C@H](N3CCN(c4ccc5c(c4)-c4nc(N6C(=O)OC[C@H]6C(F)F)cn4CCO5)CC3)C2)cc1 (single isomer, unassigned) [Compound 29] | 5.90 | 7.31 | 7.42 |  |  | 8.93 |  | 
4 | C=CC(=O)N1CCC(N2CC(CN3CCN(c4ccc5c(c4)-c4nc(N6C(=O)OC[C@H]6C(F)F)cn4CCO5)CC3)C2)CC1 [Compound 5] | 6.50 | 6.93 | 5.92 | 7.46 | 6.17 | 7.30 |  | 
5 | C=CC(=O)Nc1ccc(CC(=O)N2CCN(c3ccc4c(c3)-c3nc(N5C(=O)OC[C@H]5C(F)F)cn3CCO4)CC2)cc1 [Compound 1] | 6.50 | > 8.10 | 7.68 | 7.74 | 6.99 | 8.27 |  | 
6 | CN(C)C/C=C/C(=O)Nc1ccc(N2CC(N3CCN(c4ccc5c(c4)-c4nc(N6C(=O)OC[C@H]6C(F)F)cn4CCO5)CC3)C2)cc1 [Compound 96] | 5.50 | 6.32 | 6.65 | 8.60 | 7.59 | 8.88 |  | 
7 | C=CC(=O)Nc1ccc(N2CC(CN3CCN(c4ccc5c(c4)-c4nc(N6C(=O)OC[C@H]6C(F)F)cn4CCO5)CC3)C2)cc1 [Compound 4] | 6.50 | 7.37 | 7.01 | 7.59 | 7.19 | 8.13 |  | 
8 | C=CC(=O)Nc1ccc(N2CC(N3CCN(c4ccc5c(c4)-c4nc(N6C(=O)OC[C@H]6C(F)F)cn4CCO5)CC3)C2)cc1 [Compound 27] | 5.53 | 7.12 | 7.59 | 9.44 | 8.05 | 9.68 |  | 
9 | C=CC(=O)N1CC(N2CCC(CN3CCN(c4ccc5c(c4)-c4nc(N6C(=O)OC[C@H]6C(F)F)cn4CCO5)CC3)CC2)C1 [Compound 17] | 6.50 | 7.04 | 6.50 | 7.80 | 7.09 | 7.96 |  | 
10 | CC(C)(C=C(C#N)C(=O)Nc1ccc(N2CC(N3CCN(c4ccc5c(c4)-c4nc(N6C(=O)OC[C@H]6C(F)F)cn4CCO5)CC3)C2)cc1)NCOC(=O)C(C)(C)C [Compound 329] |  |  |  |  |  |  | > 7.30 | > 7.30
11 | C=CC(=O)Nc1ccc(N2CC(N3CCN(c4ccc5c(c4)-c4nc(N6C(=O)OC[C@H]6C)cn4CCO5)CC3)C2)cn1 [Compound 147] |  |  |  | 8.82 | 7.54 |  |  | 
12 | C=CC(=O)Nc1ccc(N2CC(N3CCN(c4ccc5c(c4)-c4nc(-c6nc(C)nn6C(C)C)cn4CCO5)CC3)C2)cc1Cl [Compound 377] |  |  |  |  |  |  | > 7.30 | > 7.30
13 | C=CC(=O)Nc1ccc(CN2CCN(c3ccc4c(c3)-c3nc(N5C(=O)OC[C@H]5C(F)F)cn3CCO4)CC2)cc1 [Compound 44] |  |  |  | 6.82 | 6.19 |  |  | 
14 | Cc1nc(-c2cn3c(n2)-c2cc(N4CCN(C5CN(c6ccc(NC(=O)C(C#N)=CC(C)(C)NC(=O)OC(C)(C)C)cc6)C5)CC4)ccc2OCC3)n(C(C)C)n1 [Compound 338] |  |  |  |  |  |  | > 7.30 | > 7.30
15 | C=CC(=O)Nc1ccc(N2CC(N3CCN(c4ccc5c(c4)-c4nc(N6C(=O)OC[C@H]6C(F)F)cn4CCO5)CC3)C2)cc1C [Compound 139] |  |  |  | 9.22 | 8.17 |  |  | 
16 | C=CC(=O)Nc1ccc(N2CC(N3CCN(c4ccc5c(c4)-c4nc(N6C(=O)OC[C@H]6C(F)F)cn4CCO5)CC3)C2)nc1C [Compound 216] |  |  |  |  |  |  | > 7.30 | > 7.30
17 | C=CC(=O)Nc1ccc(N2CC(N3CCN(c4ccc5c(c4)-c4nc(N6C(=O)OC[C@H]6C(F)F)cn4CCO5)CC3)C2)cc1C#N [Compound 143] |  |  |  | 10.00 | 8.66 |  |  | 
18 | C=CC(=O)Nc1ncc(N2CC(N3CCN(c4ccc5c(c4)-c4nc(N6C(=O)OC[C@H]6C(F)F)cn4CCO5)CC3)C2)cn1 [Compound 162] |  |  |  | 9.40 | 8.47 |  |  | 
19 | C=CC(=O)N1CCC(CCN2CC3(C2)CN(c2ccc4c(c2)-c2nc(N5C(=O)OC[C@H]5C(F)F)cn2CCO4)C3)CC1 [Compound 19] |  |  |  | 6.66 | < 6.00 |  |  | 
20 | CC(=O)OCNC(C)(C)C=C(C#N)C(=O)Nc1ccc(N2CC(N3CCN(c4ccc5c(c4)-c4nc(N6C(=O)OC[C@H]6C(F)F)cn4CCO5)CC3)C2)cc1 [Compound 328] |  |  |  |  |  |  | > 7.30 | > 7.30
